# In US8445509B2, “Fused heterocyclic derivatives and use thereof” (Takeda Pharmaceutical Company Limited, priority 2008, dated 2013):
# Key:
# [1] = biological target: T1, VEGFR2 intracellular domain protein (Homo sapiens, UniProt P35968); assay: Vascular endothelial growth factor receptor 2 (VEGFR2) kinase inhibitory activity (AlphaScreen); format: biochemical
# T1 construct: made in house; host or cells: SF-21 insect cells, recombinant baculovirus BAC-VEGFR2
# Protocol: Human vascular endothelial growth factor receptor 2 (hereinafter to be referred to as VEGFR2) gene was cloned by PCR using cDNA Libraries Human Placenta (Clontech) as a template. […] The primer base sequence is shown below.
# SF-21 cells were sown at 1×10^6 cells/mL to Sf-900II SFM medium (1 L, Invitrogen) containing 10% fetal bovine serum (trace), 50 mg/L Gentamicin (Invitrogen) and 0.1% Pluronic F-68 (Invitrogen), and shaking culture was performed using a 2 L volume Erlenmeyer flask at 27° C., 100 rpm. After culturing for 24 hrs, recombinant baculovirus BAC-VEGFR2 (13.4 mL) was added to the mixture, and the mixture was further cultured for 3 days. The culture medium was centrifuged at 2,000 rpm for 5 min to give virus-infected cells. The infected cells were washed with a phosphate buffered saline (Invitrogen), centrifuged under the same conditions, and the cells were preserved at −80° C. The cryopreserved cells were thawed in ice, suspended in buffer A (50 mM Tris buffer (30 mL, pH 7.4) containing 20% glycerol, 0.15 M NaCl) supplemented with Complete Protease Inhibitor (Boehringer), and ruptured 3 times with a Polytron homogenizer (Kinematica) at 20,000 rpm for 30 sec. The ruptured medium was clarified by centrifugation at 40,000 rpm for 30 min and filtered with a 0.45 μm filter. The filtrate was passed through a column packed with Anti-FLAG M2 Affinity Gel (4 mL, Sigma) at a flow rate of about 0.5 mL/min. The column was washed with buffer A, and eluted with buffer A containing 100 μg/mL of FLAG peptide. The eluate was concentrated with Vivaspin 20 (Vivascience) having a molecular weight cut off of 30K. The buffer of this concentrate was exchanged using NAP™ 25 column (Amersham Bioscience) equilibrated with buffer A. The fractions containing intracellular domain protein of VEGFR2 were collected, glycerol was added to the final concentration of 50% and cryopreserved at −80° C.
# A test compound dissolved in dimethyl sulfoxide (DMSO) was diluted with a buffer (50 mM Tris-HCl (pH 7.5), 5 mM MgCl2, 5 mM MnCl2, 2 mM dithiothreitol, 0.01% Tween-20). To this compound solution (5 μL) was added a buffer (10 μL) containing 50 ng/mL of VEGFR2 intracellular domain protein and 250 ng/mL of biotin labeled polypeptide biotinyl-poly-Glu:Tyr (4:1) (CIS bio International). […] The reaction solution was allowed to stand at 25° C. for 16 hrs, and the wells were counted using a plate reader (Fusion™ (PerkinElmer)). The kinase inhibitory rate (%) of the test compound was calculated by the following formula: Inhibitory rate (%)=(1−(count of test compound−blank)÷(control−blank))×100
# The count of the solution reacted without addition of the compound was used as a “control”, and the count of the solution without the compound and ATP was used as a “blank”.
# [2] = biological target: T2, Tie2 intracellular domain protein (Homo sapiens, UniProt Q02763); assay: TIE2 kinase inhibitory activity (AlphaScreen); format: biochemical
# T2 construct: 50 ng/mL of Tie2 intracellular domain protein (Millipore); purchased Millipore
# T2 sequence (Q02763 770-1124 limits assumed): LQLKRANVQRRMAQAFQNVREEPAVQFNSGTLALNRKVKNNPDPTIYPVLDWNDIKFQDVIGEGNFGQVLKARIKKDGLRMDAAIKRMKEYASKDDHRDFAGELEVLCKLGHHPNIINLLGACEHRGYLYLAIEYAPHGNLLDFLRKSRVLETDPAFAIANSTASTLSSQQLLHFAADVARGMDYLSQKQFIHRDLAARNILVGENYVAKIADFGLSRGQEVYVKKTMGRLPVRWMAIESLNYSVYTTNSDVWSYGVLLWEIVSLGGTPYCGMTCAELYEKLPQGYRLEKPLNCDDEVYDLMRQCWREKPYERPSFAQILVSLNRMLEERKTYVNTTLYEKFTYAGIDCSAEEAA
# [3] = system: Human umbilical vein-derived vascular endothelial cells (HUVEC); assay: Vascular endothelial cell proliferation inhibitory test (VEGF-stimulated HUVEC); format: cell-based; conditions: 120 h, 5 days of culture with VEGF
# Procedure, shortened: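 HUVEC (3000 cells/well) in medium with 3% FBS, cultured overnight, then given test substance plus VEGF (120 ng/mL in the added medium). After 5 days at 37 °C, Cell Counting Kit-8 was applied for 2-3 h and A450 read. IC50 relative to no-compound wells, by logistic nonlinear least-squares fit.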
# T1 sequence (P35968 786-1356 limits assumed): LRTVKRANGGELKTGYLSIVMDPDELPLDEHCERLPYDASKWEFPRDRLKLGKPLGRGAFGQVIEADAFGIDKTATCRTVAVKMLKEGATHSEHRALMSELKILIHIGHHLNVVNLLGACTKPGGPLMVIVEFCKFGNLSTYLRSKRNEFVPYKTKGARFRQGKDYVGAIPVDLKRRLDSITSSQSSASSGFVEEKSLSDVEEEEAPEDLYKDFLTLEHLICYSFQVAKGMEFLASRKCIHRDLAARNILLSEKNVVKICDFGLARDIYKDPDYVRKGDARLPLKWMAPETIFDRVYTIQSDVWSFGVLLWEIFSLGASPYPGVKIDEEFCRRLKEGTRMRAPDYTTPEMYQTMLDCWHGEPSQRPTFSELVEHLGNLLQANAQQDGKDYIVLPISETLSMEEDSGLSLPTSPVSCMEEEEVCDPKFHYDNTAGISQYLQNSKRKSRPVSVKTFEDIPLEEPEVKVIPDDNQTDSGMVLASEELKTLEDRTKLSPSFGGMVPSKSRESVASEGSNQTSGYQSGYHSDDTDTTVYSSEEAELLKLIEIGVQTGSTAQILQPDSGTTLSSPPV
Structure (SMILES),IC50 [1] [µM],IC50 [2] [µM],IC50 [3] [µM]
"Cc1ccc(C(=O)Nc2ccc(Oc3ccc4nc(NC(=O)C5CC5)cn4c3)cn2)[n+]([O-])c1-c1ccc(F)cc1 [Example 61, N-[5-({2-[(cyclopropylcarbonyl)amino]imidazo[1,2-a]pyridin-6-yl}oxy)pyridin-2-yl]-6-(4-fluorophenyl)-5-methylpyridine-2-carboxamide 1-oxide]",≤ 1,≤ 1,≤ 2
"O=C(Nc1cn2cc(Oc3ccc(NC(=O)C4(C(=O)Nc5ccccc5)CC4)cc3F)ccc2n1)C1CC1 [Example 14, N-[4-({2-[(cyclopropylcarbonyl)amino]imidazo[1,2-a]pyridin-6-yl}oxy)-3-fluorophenyl]-N′-phenylcyclopropane-1,1-dicarboxamide]",≤ 1,≤ 1,≤ 2
"Cc1ccc(C(=O)Nc2ccc(Oc3ccc4nc(NC(=O)C5CC5)cn4c3)c(F)c2)[n+]([O-])c1-c1cccc(F)c1 [Example 93, N-[4-({2-[(cyclopropylcarbonyl)amino]imidazo[1,2-a]pyridin-6-yl}oxy)-3-fluorophenyl]-6-(3-fluorophenyl)-5-methylpyridine-2-carboxamide 1-oxide]",≤ 1,≤ 1,≤ 2
"Cc1ccc(C(=O)Nc2ccc(Oc3ccc4nc(NC(=O)C5CC5)cn4c3)cn2)c(=O)n1-c1ccc(F)cc1 [Example 60, N-[5-({2-[(cyclopropylcarbonyl)amino]imidazo[1,2-a]pyridin-6-yl}oxy)pyridin-2-yl]-1-(4-fluorophenyl)-6-methyl-2-oxo-1,2-dihydropyridine-3-carboxamide]",≤ 1,≤ 1,≤ 2
"Cc1ccc(C(=O)Nc2ccc(Oc3ccc4nc(NC(=O)C5CC5)cn4c3)cc2F)[n+]([O-])c1-c1ccc(F)cc1 [Example 84, N-[4-({2-[(cyclopropylcarbonyl)amino]imidazo[1,2-a]pyridin-6-yl}oxy)-2-fluorophenyl]-6-(4-fluorophenyl)-5-methylpyridine-2-carboxamide 1-oxide]",≤ 1,≤ 1,≤ 2
"CC1=C(c2ccc(F)cc2)C(=O)N(C(=O)Nc2ccc(Oc3ccc4nc(NC(=O)C5CC5)cn4c3)c(F)c2)CC1 [Example 81, N-[4-({2-[(cyclopropylcarbonyl)amino]imidazo[1,2-a]pyridin-6-yl}oxy)-3-fluorophenyl]-5-(4-fluorophenyl)-4-methyl-6-oxo-3,6-dihydropyridine-1(2H)-carboxamide]",≤ 1,≤ 1,≤ 2
"Cc1ccc(C(=O)Nc2ccc(Oc3ccc4nc(NC(=O)C5CC5)cn4c3)cc2)c(=O)n1-c1ccc(F)cc1 [Example 28, N-[4-({2-[(cyclopropylcarbonyl)amino]imidazo[1,2-a]pyridin-6-yl}oxy)phenyl]-1-(4-fluorophenyl)-6-methyl-2-oxo-1,2-dihydropyridine-3-carboxamide]",≤ 1,≤ 1,≤ 2
"Cc1cc(C(=O)Nc2ccc(Oc3ccc4nc(NC(=O)C5CC5)cn4c3)c(F)c2)c(=O)n(-c2ccc(F)cc2)c1 [Example 66, N-[4-({2-[(cyclopropylcarbonyl)amino]imidazo[1,2-a]pyridin-6-yl}oxy)-3-fluorophenyl]-1-(4-fluorophenyl)-5-methyl-2-oxo-1,2-dihydropyridine-3-carboxamide]",≤ 1,≤ 1,≤ 2
"Cc1ccc(C(=O)Nc2ccc(Oc3ccc4nc(NC(=O)C5CC5)cn4c3)c(Cl)c2)c(=O)n1-c1ccc(F)cc1 [Example 57, N-[3-chloro-4-({2-[(cyclopropylcarbonyl)amino]imidazo[1,2-a]pyridin-6-yl}oxy)phenyl]-1-(4-fluorophenyl)-6-methyl-2-oxo-1,2-dihydropyridine-3-carboxamide]",≤ 1,≤ 1,≤ 2
"Cc1ccc(C(=O)Nc2ccc(Oc3ccc4nc(NC(=O)C5CC5)cn4c3)c(F)c2)c(=O)n1-c1ccc(F)c(F)c1 [Example 45, N-[4-({2-[(cyclopropylcarbonyl)amino]imidazo[1,2-a]pyridin-6-yl}oxy)-3-fluorophenyl]-1-(3,4-difluorophenyl)-6-methyl-2-oxo-1,2-dihydropyridine-3-carboxamide]",≤ 1,≤ 1,≤ 2
"Cc1c(C(=O)Nc2ccc(Oc3ccc4nc(NC(=O)C5CC5)cn4c3)c(F)c2)c(=O)n(-c2ccccc2)n1C [Example 46, N-[4-({2-[(cyclopropylcarbonyl)amino]imidazo[1,2-a]pyridin-6-yl}oxy)-3-fluorophenyl]-1,5-dimethyl-3-oxo-2-phenyl-2,3-dihydro-1H-pyrazole-4-carboxamide]",≤ 1,≤ 1,≤ 2
"O=C(Nc1nc2ccc(Oc3ccc(NC(=O)C4(C(=O)Nc5ccccc5)CC4)cc3F)cc2s1)C1CC1 [Example 18, N-[4-({2-[(cyclopropylcarbonyl)amino]-1,3-benzothiazol-6-yl}oxy)-3-fluorophenyl]-N′-phenylcyclopropane-1,1-dicarboxamide]",≤ 1,≤ 1,≤ 2
"O=C(Nc1ccc(Oc2ccc3nc(NC(=O)C4CC4)cn3c2)c(F)c1)c1cccn(-c2ccc(F)cc2)c1=O [Example 10, N-[4-({2-[(cyclopropylcarbonyl)amino]imidazo[1,2-a]pyridin-6-yl}oxy)-3-fluorophenyl]-1-(4-fluorophenyl)-2-oxo-1,2-dihydropyridine-3-carboxamide]",≤ 1,≤ 1,≤ 2
"O=C(Nc1cn2cc(Oc3ccc(NC(=O)C4(C(=O)Nc5ccc(F)cc5)CC4)cc3F)ccc2n1)C1CC1 [Example 11, N-[4-({2-[(cyclopropylcarbonyl)amino]imidazo[1,2-a]pyridin-6-yl}oxy)-3-fluorophenyl]-N′-(4-fluorophenyl)cyclopropane-1,1-dicarboxamide]",≤ 1,≤ 1,≤ 2
"Cc1cc(C(=O)Nc2ccc(Oc3ccc4nc(NC(=O)C5CC5)cn4c3)c(F)c2)c(=O)n(-c2ccc(F)cc2)c1C [Example 70, N-[4-({2-[(cyclopropylcarbonyl)amino]imidazo[1,2-a]pyridin-6-yl}oxy)-3-fluorophenyl]-1-(4-fluorophenyl)-5,6-dimethyl-2-oxo-1,2-dihydropyridine-3-carboxamide]",≤ 1,≤ 1,≤ 2
